Reference: publication PMC6345968, “Structural basis for species-selective targeting of Hsp90 in a pathogenic fungus” (Nature Communications, 2019)
Where two headings read alike, the source gives them in different places.

Key:
Hsp90 in HEPG2 lysate = conditions: for FP signal: raw
[1] = biological target: T1, Hsp90 in C. albicans (SC5314) lysate (Candida albicans, UniProt P46598); assay: biochemical; assay type: binding; conditions: for Ratio re. GdA: EC50 relative to GdA; for Ratio re. GdA / FP signal (raw) / FP signal relative to 0 nM / FP signal / EC50: SC5314 lysate; for FP signal: raw; for EC50: not normalized, oxime panel experiment 220817, read-out: EC50
T1 construct: endogenous in cells; host or cells: C. albicans SC5314 whole-cell lysate
T1 sequence (P46598 whole entry): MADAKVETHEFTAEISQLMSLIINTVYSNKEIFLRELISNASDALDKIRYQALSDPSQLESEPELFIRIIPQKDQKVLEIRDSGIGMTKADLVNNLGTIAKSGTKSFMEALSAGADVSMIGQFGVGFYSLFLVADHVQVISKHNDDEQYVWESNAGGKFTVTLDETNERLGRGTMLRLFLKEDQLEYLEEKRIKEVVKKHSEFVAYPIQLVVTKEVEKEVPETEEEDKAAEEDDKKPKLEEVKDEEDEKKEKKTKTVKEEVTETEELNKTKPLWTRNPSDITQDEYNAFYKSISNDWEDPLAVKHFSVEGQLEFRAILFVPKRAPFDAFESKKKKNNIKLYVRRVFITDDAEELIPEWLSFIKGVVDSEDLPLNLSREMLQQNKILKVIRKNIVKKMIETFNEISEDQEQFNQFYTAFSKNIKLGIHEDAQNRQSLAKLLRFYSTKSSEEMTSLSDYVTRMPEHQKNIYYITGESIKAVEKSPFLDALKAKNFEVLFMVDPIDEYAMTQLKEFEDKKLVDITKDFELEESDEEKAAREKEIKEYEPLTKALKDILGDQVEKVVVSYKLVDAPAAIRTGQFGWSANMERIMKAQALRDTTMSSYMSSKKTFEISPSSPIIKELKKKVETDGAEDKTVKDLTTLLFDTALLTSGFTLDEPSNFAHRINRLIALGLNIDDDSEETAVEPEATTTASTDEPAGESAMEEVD

[2] = EC50 / EC50 of GdA in HepG2 lysate
[3] = EC50 relative to GdA, HEPG2 lysate
[4] = HEPG2 lysate, log concentration 0.137354 (1.372 nM)
[5] = HEPG2 lysate, log concentration 0.61437 (4.115 nM)
[6] = HEPG2 lysate, log concentration 1.09153 (12.346 nM)
[7] = HEPG2 lysate, log concentration 1.56864 (37.037 nM)
[8] = HEPG2 lysate, log concentration 2.04576 (111.111 nM)
[9] = HEPG2 lysate, log concentration 2.52288 (333.333 nM)
[10] = HEPG2 lysate, log concentration 3 (1000 nM)
[11] = HEPG2 lysate, log concentration 3.47712 (3000 nM)
[12] = HEPG2 lysate, log concentration -0.340084 (0.457 nM)
[13] = HepG2 lysate, 0.457 nM compound
[14] = HepG2 lysate, 1.372 nM compound
[15] = HepG2 lysate, 4.115 nM compound
[16] = HepG2 lysate, 12.346 nM compound
[17] = HepG2 lysate, 37.037 nM compound
[18] = HepG2 lysate, 111.111 nM compound
[19] = HepG2 lysate, 333.333 nM compound
[20] = HepG2 lysate, oxime panel experiment 220817
[21] = ratio of GdA-normalized EC50s, human over fungal lysate
[22] = ratio of GdA-relative EC50 ratios, HepG2 over SC5314

COc1ccccc1CON=C1C=CC=CC2OC2CC(C)OC(=O)c2c(O)cc(O)c(Cl)c2C1 (mixture of isomers) [compound 226]
Ratio rel. GdA (HepG2) (Hsp90 in HEPG2 lysate; [2]): 32.872 | Ratio rel. GdA (HepG2) (Hsp90 in HEPG2 lysate; [3]): 32.872 | FP signal, Fxn Control (Hsp90 in HEPG2 lysate; [4]): 0.9856 | FP signal, Fxn Control (Hsp90 in HEPG2 lysate; [5]): 0.9952 | FP signal, Fxn Control (Hsp90 in HEPG2 lysate; [6]): 0.9952 | FP signal, Fxn Control (Hsp90 in HEPG2 lysate; [7]): 0.9809 | FP signal, Fxn Control (Hsp90 in HEPG2 lysate; [8]): 0.9426 | FP signal, Fxn Control (Hsp90 in HEPG2 lysate; [9]): 0.8517 | FP signal, Fxn Control (Hsp90 in HEPG2 lysate; [10]): 0.445 | FP signal, Fxn Control (Hsp90 in HEPG2 lysate; [11]): 0.2105 | FP signal, Fxn Control (Hsp90 in HEPG2 lysate; [12]): 0.9713 | FP signal (raw) (Hsp90 in HEPG2 lysate; HepG2 lysate, 0.457 nM): 203 | FP signal (Hsp90 in HEPG2 lysate; [13]): 203 | FP signal (raw) (Hsp90 in HEPG2 lysate; HepG2 lysate, 1.372 nM): 206 | FP signal (Hsp90 in HEPG2 lysate; [14]): 206 | FP signal (raw) (Hsp90 in HEPG2 lysate; HepG2 lysate, 4.115 nM): 208 | FP signal (Hsp90 in HEPG2 lysate; [15]): 208 | FP signal (raw) (Hsp90 in HEPG2 lysate; HepG2 lysate, 12.346 nM): 208 | FP signal (Hsp90 in HEPG2 lysate; [16]): 208 | FP signal (raw) (Hsp90 in HEPG2 lysate; HepG2 lysate, 37.037 nM): 205 | FP signal (Hsp90 in HEPG2 lysate; [17]): 205 | FP signal (raw) (Hsp90 in HEPG2 lysate; HepG2 lysate, 111.111 nM): 197 | FP signal (Hsp90 in HEPG2 lysate; [18]): 197 | FP signal (raw) (Hsp90 in HEPG2 lysate; HepG2 lysate, 333.333 nM): 178 | FP signal (Hsp90 in HEPG2 lysate; [19]): 178 | FP signal (raw) (Hsp90 in HEPG2 lysate; HepG2 lysate, 1000 nM): 93 | FP signal (Hsp90 in HEPG2 lysate; HepG2 lysate, 1000 nM compound): 93 | FP signal (raw) (Hsp90 in HEPG2 lysate; HepG2 lysate, 3000 nM): 44 | FP signal (Hsp90 in HEPG2 lysate; HepG2 lysate, 3000 nM compound): 44 | EC50 (Hsp90 in HEPG2 lysate; [20]): 0.729 µM | Ratio re. GdA [1]: 24.5326 | FP signal (raw) ([1]; 0.457 nM): 193 | FP signal relative to 0 nM ([1]; 0.457 nM compound): 0.9461 | FP signal ([1]; 0.457 nM compound): 193 | FP signal (raw) ([1]; 1.372 nM): 197 | FP signal relative to 0 nM ([1]; 1.372 nM compound): 0.9657 | FP signal ([1]; 1.372 nM compound): 197 | FP signal (raw) ([1]; 4.115 nM): 190 | FP signal relative to 0 nM ([1]; 4.115 nM compound): 0.9314 | FP signal ([1]; 4.115 nM compound): 190 | FP signal (raw) ([1]; 12.346 nM): 193 | FP signal relative to 0 nM ([1]; 12.346 nM compound): 0.9461 | FP signal ([1]; 12.346 nM compound): 193 | FP signal (raw) ([1]; 37.037 nM): 190 | FP signal relative to 0 nM ([1]; 37.037 nM compound): 0.9314 | FP signal ([1]; 37.037 nM compound): 190 | FP signal (raw) ([1]; 111.111 nM): 176 | FP signal relative to 0 nM ([1]; 111.111 nM compound): 0.8627 | FP signal ([1]; 111.111 nM compound): 176 | FP signal (raw) ([1]; 333.333 nM): 131 | FP signal relative to 0 nM ([1]; 333.333 nM compound): 0.6422 | FP signal ([1]; 333.333 nM compound): 131 | FP signal (raw) ([1]; 1000 nM): 57 | FP signal relative to 0 nM ([1]; 1000 nM compound): 0.2794 | FP signal ([1]; 1000 nM compound): 57 | FP signal (raw) ([1]; 3000 nM): 38 | FP signal relative to 0 nM ([1]; 3000 nM compound): 0.1863 | FP signal ([1]; 3000 nM compound): 38 | EC50 [1]: 0.417 µM | HepG2/SC5314 [1, 21]: 1.34 | HepG2/SC5314 [1, 22]: 1.34

CC1CC2OC2C=CC=CC(=NOCc2ccccc2)Cc2c(Cl)c(O)cc(O)c2C(=O)O1 (mixture of isomers) [compound 217]
Ratio rel. GdA (HepG2) (Hsp90 in HEPG2 lysate; [2]): 15.9107 | Ratio rel. GdA (HepG2) (Hsp90 in HEPG2 lysate; [3]): 15.9107 | FP signal, Fxn Control (Hsp90 in HEPG2 lysate; [4]): 0.9806 | FP signal, Fxn Control (Hsp90 in HEPG2 lysate; [5]): 0.9951 | FP signal, Fxn Control (Hsp90 in HEPG2 lysate; [6]): 0.9951 | FP signal, Fxn Control (Hsp90 in HEPG2 lysate; [7]): 0.9612 | FP signal, Fxn Control (Hsp90 in HEPG2 lysate; [8]): 0.8592 | FP signal, Fxn Control (Hsp90 in HEPG2 lysate; [9]): 0.6117 | FP signal, Fxn Control (Hsp90 in HEPG2 lysate; [10]): 0.2524 | FP signal, Fxn Control (Hsp90 in HEPG2 lysate; [11]): 0.1893 | FP signal, Fxn Control (Hsp90 in HEPG2 lysate; [12]): 1.005 | FP signal (raw) (Hsp90 in HEPG2 lysate; HepG2 lysate, 0.457 nM): 207 | FP signal (Hsp90 in HEPG2 lysate; [13]): 207 | FP signal (raw) (Hsp90 in HEPG2 lysate; HepG2 lysate, 1.372 nM): 202 | FP signal (Hsp90 in HEPG2 lysate; [14]): 202 | FP signal (raw) (Hsp90 in HEPG2 lysate; HepG2 lysate, 4.115 nM): 205 | FP signal (Hsp90 in HEPG2 lysate; [15]): 205 | FP signal (raw) (Hsp90 in HEPG2 lysate; HepG2 lysate, 12.346 nM): 205 | FP signal (Hsp90 in HEPG2 lysate; [16]): 205 | FP signal (raw) (Hsp90 in HEPG2 lysate; HepG2 lysate, 37.037 nM): 198 | FP signal (Hsp90 in HEPG2 lysate; [17]): 198 | FP signal (raw) (Hsp90 in HEPG2 lysate; HepG2 lysate, 111.111 nM): 177 | FP signal (Hsp90 in HEPG2 lysate; [18]): 177 | FP signal (raw) (Hsp90 in HEPG2 lysate; HepG2 lysate, 333.333 nM): 126 | FP signal (Hsp90 in HEPG2 lysate; [19]): 126 | FP signal (raw) (Hsp90 in HEPG2 lysate; HepG2 lysate, 1000 nM): 52 | FP signal (Hsp90 in HEPG2 lysate; HepG2 lysate, 1000 nM compound): 52 | FP signal (raw) (Hsp90 in HEPG2 lysate; HepG2 lysate, 3000 nM): 39 | FP signal (Hsp90 in HEPG2 lysate; HepG2 lysate, 3000 nM compound): 39 | EC50 (Hsp90 in HEPG2 lysate; [20]): 0.353 µM | Ratio re. GdA [1]: 23.0159 | FP signal (raw) ([1]; 0.457 nM): 197 | FP signal relative to 0 nM ([1]; 0.457 nM compound): 0.9426 | FP signal ([1]; 0.457 nM compound): 197 | FP signal (raw) ([1]; 1.372 nM): 194 | FP signal relative to 0 nM ([1]; 1.372 nM compound): 0.9282 | FP signal ([1]; 1.372 nM compound): 194 | FP signal (raw) ([1]; 4.115 nM): 198 | FP signal relative to 0 nM ([1]; 4.115 nM compound): 0.9474 | FP signal ([1]; 4.115 nM compound): 198 | FP signal (raw) ([1]; 12.346 nM): 197 | FP signal relative to 0 nM ([1]; 12.346 nM compound): 0.9426 | FP signal ([1]; 12.346 nM compound): 197 | FP signal (raw) ([1]; 37.037 nM): 192 | FP signal relative to 0 nM ([1]; 37.037 nM compound): 0.9187 | FP signal ([1]; 37.037 nM compound): 192 | FP signal (raw) ([1]; 111.111 nM): 183 | FP signal relative to 0 nM ([1]; 111.111 nM compound): 0.8756 | FP signal ([1]; 111.111 nM compound): 183 | FP signal (raw) ([1]; 333.333 nM): 134 | FP signal relative to 0 nM ([1]; 333.333 nM compound): 0.6411 | FP signal ([1]; 333.333 nM compound): 134 | FP signal (raw) ([1]; 1000 nM): 42 | FP signal relative to 0 nM ([1]; 1000 nM compound): 0.201 | FP signal ([1]; 1000 nM compound): 42 | FP signal (raw) ([1]; 3000 nM): 38 | FP signal relative to 0 nM ([1]; 3000 nM compound): 0.1818 | FP signal ([1]; 3000 nM compound): 38 | EC50 [1]: 0.392 µM | HepG2/SC5314 [1, 21]: 0.6913 | HepG2/SC5314 [1, 22]: 0.6913

CC1(C)CC(=O)c2c(C(F)(F)F)nn(-c3ccc(C(N)=O)c(N[C@H]4CC[C@H](O)CC4)c3)c2C1 [SNX]
EC50 (Hsp90 in HEPG2 lysate; read-out: FP EC50, Human lysate, rounded summary): 0.0401 µM
